Results as given in the supplement of paper PMC10307832.

Compound: CC(C)(C)c1cc(NC(=O)Nc2ccc(-c3cn4c(n3)sc3cc(OCCN5CCOCC5)ccc34)cc2)no1 [Quizartinib] + CC(=O)c1c(C)c2cnc(Nc3ccc(N4CCNCC4)cn3)nc2n(C2CCCC2)c1=O [Palbociclib] (partner 0.5 µM)
Assay: relative viability (nuclei count vs DMSO), 5 days (fraction); higher = more cells survive
Settings: first compound 0.01 µM
In short: (§1)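 Relative viability was taken as the ratio of nuclei in treated wells to nuclei in vehicle wells. Lung cancer cell lines in 1536-well plates received compounds by pin tool one day after seeding, either one drug alone or a fixed anchor-drug dose plus five library-drug doses (not always all listed) in √10 steps. Nuclei were counted on 4× images after 5 days of treatment, and values are medians of duplicate plates.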

Cell Line | relative viability
COR-L 105 | 0.396
HCC-15 | 0.72
HARA | 0.261

Same assay, conditions: first compound 0.03162 µM

Cell Line | relative viability
EKVX | 0.451
EPLC-272H | 0.311
NCI-H520 | 0.196
NCI-H650 | 0.336
RERF-LC-KJ | 0.984
HCC-827 | 0.65
NCI-H2087 | 0.218
SK-MES-1 | 0.299
NCI-H1651 | 0.517
UMC-11 | 0.321
NCI-H1355 | 0.36
H3255 | 0.305
NCI-H1792 | 0.617
NCI-H647 | 0.403
LCLC-97TM1 | 0.241
LXF-289 | 0.594
LU99A | 0.432
NCI-H2228 | 1.03
NCI-H1437 | 0.299
NCI-H1395 | 0.591
NCI-H2009 | 0.191
HCC-366 | 0.382
NCI-H1915 | 0.552
NCI-H2347 | 0.428
LCLC-103H | 0.513
ABC-1 | 0.769
NCI-H1734 | 0.341
HCC-78 | 0.404
HCC-15 | 0.734
HARA | 0.248

Same assay, conditions: first compound 0.1 µM

Cell Line | relative viability
EKVX | 0.283
EPLC-272H | 0.312
NCI-H520 | 0.175
NCI-H650 | 0.355
RERF-LC-KJ | 1.02
HCC-827 | 0.471
NCI-H2087 | 0.229
SK-MES-1 | 0.292
NCI-H1651 | 0.566
UMC-11 | 0.317
NCI-H1355 | 0.363
H3255 | 0.309
NCI-H1792 | 0.66
NCI-H647 | 0.511
LCLC-97TM1 | 0.236
LXF-289 | 0.574

Cell Line | relative viability
LU99A | 0.249
NCI-H2023 | 0.279
NCI-H2228 | 0.76
NCI-H1437 | 0.261
NCI-H1395 | 0.598
NCI-H2009 | 0.226
HCC-366 | 0.436
NCI-H1915 | 0.474
NCI-H2347 | 0.434
LCLC-103H | 0.558
ABC-1 | 0.823
NCI-H1734 | 0.347
HCC-78 | 0.453
COR-L 105 | 0.418
HCC-15 | 0.753
HARA | 0.259

Compound: CC(C)(C)c1cc(NC(=O)Nc2ccc(-c3cn4c(n3)sc3cc(OCCN5CCOCC5)ccc34)cc2)no1 [Quizartinib] + N=C(N)NC(=N)NCCc1ccccc1 [Phenformin] (partner 250 µM)
Assay: as above
Settings: first compound 0.001 µM
In short: as §1

Cell Line | relative viability
EKVX | 0.21
EPLC-272H | 0.215
NCI-H520 | 0.582
NCI-H1563 | 0.648
NCI-H650 | 0.433
RERF-LC-KJ | 0.394
HCC-827 | 0.372
SK-MES-1 | 0.593
NCI-H1651 | 0.41
NCI-H1355 | 0.426
H3255 | 0.38
NCI-H1792 | 0.259
NCI-H647 | 0.463
NCI-H1623 | 0.455
